Measured values published in patent US9801850B2, “Antibacterial agent” (OSAKA UNIVERSITY, priority 2009, dated 2017).
In brackets after ≈: the same amount, converted by molar mass.

Key:
[1] = system: MSSA clinical isolate No. 1; test: MIC, broth microdilution (Example 2, Table 6); type: cell-based, Staphylococcus aureus
[2] = system: MSSA clinical isolate No. 4; test: MIC, broth microdilution (Example 2, Table 6); type: cell-based, Staphylococcus aureus
[3] = system: MSSA clinical isolate No. 5; test: MIC, broth microdilution (Example 2, Table 6); type: cell-based, Staphylococcus aureus
MRSA ATCC43300 = test: MIC, broth microdilution (Example 2, Table 6); type: cell-based, Staphylococcus aureus
Description: (§1) Methicillin-susceptible Staphylococcus aureus (MSSA) NCTC8325 and methicillin-resistant Staphylococcus aureus (MRSA) ATCC43300 were used as bacteria. The bacteria of each type were cultured using Mueller-Hinton Broth (MH-broth, Difco) as a medium. Then, the minimum inhibitory concentration (MIC) of each of the EGCG derivatives was measured by a broth microdilution method in accordance with the Clinical and Laboratory Standards Institute (CLSI) guidelines (hereinafter the same).
(§2) First, each of the EGCG derivatives was dissolved in 100% dimethyl sulfoxide (DMSO, Wako Pure Chemical Industries, Ltd.) so that the concentration thereof became 5120 μg/ml. The resultant solution was diluted with DMSO or sterile distilled water so as to prepare two-fold dilution series of antibacterial agent solutions. […] Each of these antibacterial agent solutions was dispensed to wells of a 96-well plate. The concentration of the EGCG derivative in the antibacterial agent solution dispensed to the wells was set to be 10 times as high as the final concentration. On the other hand, the bacteria were cultured in the MH-broth at 37° C. overnight, and the thus-obtained pre-culture solution was diluted with a new MH-broth so that the concentration thereof in the MH-broth became 10^−4 (10^4-fold dilution), thus preparing a bacterial culture solution of about 1×10^5 CFU/ml (CFU: Colony Forming Unit, the number of viable cells). The bacterial culture solution was further added to each well, and the mixture was cultured at 37° C. for 18 hours. The ratio (volume ratio) between the antibacterial agent solution and the bacterial culture solution added to each well was set to 1:9 (the antibacterial agent solution:the bacterial culture solution), and the volume of the mixture of them per well was set to 100 μl in total. The final concentration of the EGCG derivative in the mixture was set to 8 μg/ml to 512 μg/ml, and the number of viable cells in the mixture was set to about 1×10^5 CFU/ml. Then, after the completion of the culture, the MIC was determined. Also, the turbidity (OD600 nm) was measured using a plate reader so as to identify minor differences.
(§3) Each of the EGCG derivatives was dissolved in 100% DMSO so that the concentration thereof became 1280 μg/ml. The thus-obtained solutions were diluted with sterile distilled water, thus preparing antibacterial agent solutions.
(§4) As Comparative Example 2, the same procedures as in Example 2 were performed, except that unsubstituted EGCG was used as an antibacterial agent instead of the EGCG derivatives of Example 2. Furthermore, as a control, the same procedures as in Example 2 were performed, except that sterile distilled water was used instead of the antibacterial agent solutions containing the EGCG derivatives.

[4] = system: S. aureus NCTC8325 (MSSA); test: MIC, broth microdilution (Example 2, Table 6); type: cell-based, Staphylococcus aureus
Description: as §1, §2, §3, §4

MSSA ATCC29213 = test: MIC, broth microdilution (Example 2, Table 6); type: cell-based, Staphylococcus aureus
[5] = system: MRSA clinical isolate No. 9; test: MIC, broth microdilution (Example 2, Table 6); type: cell-based, Staphylococcus aureus
[6] = system: MRSA clinical isolate No. 7; test: MIC, broth microdilution (Example 2, Table 6); type: cell-based, Staphylococcus aureus
[7] = system: Streptococcus pneumoniae ATCC49619; test: Antibacterial spectrum MIC (Table 7); type: cell-based; conditions: Strepto Haemo supplement
Description: as §1, §2
(§5) Regarding the respective type strains shown in Tables 7 and 8 below, the MIC measurement was performed using the antibacterial agent solutions of Example 2 in the same manner as described in Section (2) of Example 1, except for the following. The antibacterial agent solutions were prepared by dissolving the EGCG derivatives of Example 2 in 100% DMSO and then diluting the resultant mixtures with sterile distilled water. The respective strains were derived from ATCC or NCTC. As Moraxella catarrhalis and Aspergillus fumigatus, clinical isolates thereof without an acquired resistance mechanism were used. For nutrient-rich bacteria, namely, Streptococcus pneumoniae ATCC49619, Streptococcus pyogenes ATCC19615, Streptococcus agalactiae ATCC13813, Moraxella catarrhalis, and Haemophilis influenzae ATCC49766, Strepto Haemo supplement (Eiken Chemical Co., Ltd.) was added to media for culturing them. The MIC measurement with respect to fungi was carried out by a broth microdilution method using a RPMI1640/MOPS (pH 7.0) medium in accordance with CLSI guidelines. About 2×10^3 cells/ml of fungi were inoculated to the medium. After the culture at 35° C. for 24 to 48 hours, the MIC was determined. Also, regarding the antibacterial agent solution of Comparative Example 2, the MIC was measured in the same manner.

Candida krusei ATCC6258 = test: MIC with respect to fungi, broth microdilution (Table 8); type: cell-based; conditions: RPMI1640/MOPS (pH 7.0), 35° C., 24 to 48 hours
Description: as §5

Aspergillus fumigatus = test: as above; type: cell-based; conditions: Aspergillus fumigatus clinical isolate; RPMI1640/MOPS (pH 7.0), 35° C., 24 to 48 hours
Description: as §5

[8] = system: Cryptococcus neoformans ATCC90112; test: as above; type: cell-based; conditions: RPMI1640/MOPS (pH 7.0), 35° C., 24 to 48 hours
Description: as §5

[9] = system: Candida albicans ATCC24433; test: as above; type: cell-based; conditions: RPMI1640/MOPS (pH 7.0), 35° C., 24 to 48 hours
Description: as §5

[10] = system: Candida tropicalis ATCC750; test: as above; type: cell-based; conditions: RPMI1640/MOPS (pH 7.0), 35° C., 24 to 48 hours
Description: as §5

[11] = system: Candida parapsilosis ATCC22019; test: as above; type: cell-based; conditions: RPMI1640/MOPS (pH 7.0), 35° C., 24 to 48 hours
Description: as §5

[12] = system: Candida glabrata ATCC90030; test: as above; type: cell-based; conditions: RPMI1640/MOPS (pH 7.0), 35° C., 24 to 48 hours
Description: as §5

[13] = system: MRSA clinical isolate No. 6; test: MIC, broth microdilution (Example 2, Table 6); type: cell-based, Staphylococcus aureus
MSSA ATCC12600 = test: MIC, broth microdilution (Example 2, Table 6); type: cell-based, Staphylococcus aureus
[14] = system: MRSA clinical isolate No. 12; test: MIC, broth microdilution (Example 2, Table 6); type: cell-based, Staphylococcus aureus
MSSA ATCC25923 = test: MIC, broth microdilution (Example 2, Table 6); type: cell-based, Staphylococcus aureus
[15] = system: MSSA clinical isolate No. 2; test: MIC, broth microdilution (Example 2, Table 6); type: cell-based, Staphylococcus aureus
[16] = system: MRSA clinical isolate No. 10; test: MIC, broth microdilution (Example 2, Table 6); type: cell-based, Staphylococcus aureus

Row | Compound | MIC [1] [µg/mL] | MIC [2] [µg/mL] | MIC [3] [µg/mL] | MIC (MRSA ATCC43300) [µg/mL] | MIC [4] [µg/mL] | MIC (MSSA ATCC29213) [µg/mL] | MIC [5] [µg/mL] | MIC [6] [µg/mL] | MIC (Candida krusei ATCC6258) [µg/mL] | MIC (Aspergillus fumigatus) [µg/mL] | MIC [8] [µg/mL] | MIC [9] [µg/mL] | MIC [10] [µg/mL] | MIC [11] [µg/mL] | MIC [13] [µg/mL] | MIC (MSSA ATCC12600) [µg/mL] | MIC [14] [µg/mL] | MIC (MSSA ATCC25923) [µg/mL] | MIC [15] [µg/mL] | MIC [16] [µg/mL] | also measured
1 | O=C(O[C@@H]1Cc2c(O)cc(O)cc2O[C@@H]1c1cc(O)c(O)c(O)c1)c1cc(O)c(O)c(O)c1 [EGCG, Epigallocatechin gallate, reference compound] | >128 | >128 | 128 (≈ 279 µM) | >128 | 128 (≈ 279 µM) | >128 | >128 | >128 | 64 (≈ 140 µM) | 64 (≈ 140 µM) | 64 (≈ 140 µM) | 64 (≈ 140 µM) | 64 (≈ 140 µM) | 64 (≈ 140 µM) | >128 | >128 | >128 | >128 | >128 | >128 | MIC [7]: 32 µg/mL (≈ 69.8 µM); MIC [12]: 32 µg/mL (≈ 69.8 µM)
2 | EGCG-dioctanoate [EGCG-C8×2] | 16 | 16 | 16 | 16 | 4 | 16 | 16 | 16 | 16 | 32 | 16 | 32 | 32 | 16 | 16 | 8 | 16 | 16 | 16 | 16 | MIC [7]: 16 µg/mL; MIC [12]: 16 µg/mL
3 | EGCG-linolate [EGCG-C18DE] | 16 | 16 | 16 | 16 | 16 | 16 | 64 | 16 | 16 | 32 | 8 | 16 | 32 | 16 | 32 | 16 | 16 | 32 | 16 | 16 | MIC [7]: 16 µg/mL
4 | EGCG-oleate [EGCG-C18E] | 32 | 32 | 32 | 32 | 16 | 32 | 64 | 16 | 16 | 32 | 16 | 16 | 32 | 16 | 32 | 32 | 32 | 32 | 32 | 16 | MIC [7]: 16 µg/mL; MIC [12]: 16 µg/mL
5 | EGCG-palmitate [EGCG-C16] | 16 | 16 | 16 | 16 | 8 | 16 | 32 | 16 | 16 | 32 | 8 | 32 | 32 | 16 | 16 | 16 | 16 | 16 | 16 | 16 | MIC [7]: 16 µg/mL; MIC [12]: 16 µg/mL
6 | EGCG-palmitoleate [EGCG-C16E] | 16 | 16 | 16 | 16 | 16 | 16 | 64 | 16 | 16 | 16 | 8 | 16 | 16 | 16 | 16 | 16 | 16 | 32 | 16 | 16 | MIC [7]: 16 µg/mL; MIC [12]: 16 µg/mL
7 | EGCG-stearate [EGCG-C18] | 32 | 32 | 32 | 32 | 16 | 32 | – | 32 | 16 | 32 | 16 | 16 | 32 | 16 | 32 | 32 | 64 | 32 | 32 | 32 | MIC [12]: 16 µg/mL
8 | EGCG-α-linoleate [EGCG-C18TE] | 16 | 16 | 16 | 16 | 4 | 16 | 64 | 16 | 16 | 16 | 8 | 16 | 16 | 16 | 16 | 16 | 16 | 32 | 16 | 16 | MIC [7]: 16 µg/mL
